According to US6172112A, “Retinoids and use thereof” (priority 1999, dated 2001):
Entries after “also recorded” stand apart in the source; their conditions may differ. Like-named read-outs stand apart in the source and are kept apart here.

Columns and labels:
[1] = biological target: T1, RARα (Homo sapiens, UniProt P10276); test: cell-based
T1 sequence (P10276 1-462): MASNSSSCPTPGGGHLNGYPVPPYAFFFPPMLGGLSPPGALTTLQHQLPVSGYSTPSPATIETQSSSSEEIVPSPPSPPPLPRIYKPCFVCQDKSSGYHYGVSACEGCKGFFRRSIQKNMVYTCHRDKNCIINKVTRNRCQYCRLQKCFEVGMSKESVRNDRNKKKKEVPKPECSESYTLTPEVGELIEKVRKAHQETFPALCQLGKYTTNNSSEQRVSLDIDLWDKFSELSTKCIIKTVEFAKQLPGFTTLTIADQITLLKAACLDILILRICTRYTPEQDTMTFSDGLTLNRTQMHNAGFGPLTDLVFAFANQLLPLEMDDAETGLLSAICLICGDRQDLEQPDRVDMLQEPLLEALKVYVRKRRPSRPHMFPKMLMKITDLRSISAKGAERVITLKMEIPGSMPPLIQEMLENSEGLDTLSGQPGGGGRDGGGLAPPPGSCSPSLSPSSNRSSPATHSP
Method: (§1) These assays were performed in CV-1 cells with the RAR or RXR gene and the chloramphenicol acetyltransferase (CAT) reporter gene containing TREpal with a thymidine kinase promoter [(TREpal)2 -tk-CAT]. Twenty-four hours after transfection, cells were treated with a single dose of retinoid and the cell extracts were assayed for b-galactosidase and CAT activity. The antagonistic effects of UAB30 retinoids on the transcription of RAR-α were also determined in CV-1 cells. The methods are nearly identical to those used to perform transcriptional assays. These studies utilized the CAT reporter gene [(TREpal)2 -tk-CAT]. […] After 24 hours, cells were harvested and the transcriptional effects were measured in relative CAT activity, after correction with β-galactosidase activity for transfection efficiency. […] Experiments were performed in triplicate and the data were averaged.
(§2) UAB30 isomers were evaluated in assays which measures their functional activity within cells to induce RARα-, RARβ-, and RARγ-mediated transcriptional activity. CV-1 cells were transiently transfected with DNA plasmid from the appropriate RAR subtype and (TREpal)2 -tk-CAT (9, 19).

[2] = biological target: T2, RARγ (Homo sapiens, UniProt P13631); test: RARγ-mediated transcriptional activation in CV-1 cells; type: cell-based
T2 sequence (P13631 1-454): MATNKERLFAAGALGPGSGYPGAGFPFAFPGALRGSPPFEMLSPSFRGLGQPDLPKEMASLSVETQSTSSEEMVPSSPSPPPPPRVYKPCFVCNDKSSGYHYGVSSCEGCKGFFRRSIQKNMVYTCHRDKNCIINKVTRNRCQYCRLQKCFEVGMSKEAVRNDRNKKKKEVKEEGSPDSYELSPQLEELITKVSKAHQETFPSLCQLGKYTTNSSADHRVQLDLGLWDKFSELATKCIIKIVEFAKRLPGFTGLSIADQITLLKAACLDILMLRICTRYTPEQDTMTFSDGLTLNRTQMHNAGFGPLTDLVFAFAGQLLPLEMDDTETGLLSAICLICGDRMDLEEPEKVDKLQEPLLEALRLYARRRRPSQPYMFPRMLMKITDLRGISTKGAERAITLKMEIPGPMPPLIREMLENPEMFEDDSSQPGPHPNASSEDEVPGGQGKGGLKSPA
Method: as §1, §2

[3] = biological target: T3, RXRα (Homo sapiens, UniProt P19793); test: RXRα homodimer-mediated transcriptional activation in CV-1 cells; type: cell-based
Method: as §1

[4] = biological target: T4, RARα/RXRα (Homo sapiens, UniProt P10276+P19793); test: cell-based
T4 sequence (P10276 1-462): T1 sequence (P10276 1-462)
T4 sequence (P19793 1-462): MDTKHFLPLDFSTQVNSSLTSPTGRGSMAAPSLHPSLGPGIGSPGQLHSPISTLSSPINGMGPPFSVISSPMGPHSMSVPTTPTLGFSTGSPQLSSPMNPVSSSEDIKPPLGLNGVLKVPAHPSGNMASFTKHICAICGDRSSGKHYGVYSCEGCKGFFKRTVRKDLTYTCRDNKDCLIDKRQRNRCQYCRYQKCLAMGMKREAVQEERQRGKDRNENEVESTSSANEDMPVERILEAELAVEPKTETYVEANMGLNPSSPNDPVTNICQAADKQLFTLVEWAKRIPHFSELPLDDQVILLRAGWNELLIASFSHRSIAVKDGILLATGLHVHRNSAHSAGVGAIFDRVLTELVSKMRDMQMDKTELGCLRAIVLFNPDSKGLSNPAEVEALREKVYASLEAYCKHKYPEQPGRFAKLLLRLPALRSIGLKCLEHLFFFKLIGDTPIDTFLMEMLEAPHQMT
Method: as §1

[5] = system: HL-60 cells; test: retinoid induction of differentiation of HL-60 cells (NBT); type: cell-based; conditions: Homo sapiens, HL-60, 96 h; 4-day induction of differentiation; read-out: ED50 (nM) HL-60
Method: (§3) Human leukemia cell line HL-60 and NB4 were used for measuring the ability of retinoids to induce terminal differentiation. Both cell lines are predominantly promyelocytes and are induced by retinoic acid to mature to cells with many characteristics of mature granulocytes. The induction of this differentiation is the basis for assaying one of the biological activities of retinoic acid analogues. For the differentiation assay, HL-60 or NB4 cells were grown in nutrient medium with fetal bovine serum as detailed by Breitman (15).
(§4) The percentage of cells that gained this marker was measured microscopically. The percentage of positive cells was then plotted as a function of the retinoid concentration to determine ED50 and ED30 values used in the formation of isoboles.

[6] = biological target: T1, RARα; conditions: taken from Alam et al (9); cited from earlier work
[7] = biological target: T5, RARβ (Homo sapiens, UniProt P10826); conditions: taken from Alam et al (9); cited from earlier work
T5 construct: expressed in transfected cells; host or cells: CV-1 cells
T5 sequence (P10826 1-455): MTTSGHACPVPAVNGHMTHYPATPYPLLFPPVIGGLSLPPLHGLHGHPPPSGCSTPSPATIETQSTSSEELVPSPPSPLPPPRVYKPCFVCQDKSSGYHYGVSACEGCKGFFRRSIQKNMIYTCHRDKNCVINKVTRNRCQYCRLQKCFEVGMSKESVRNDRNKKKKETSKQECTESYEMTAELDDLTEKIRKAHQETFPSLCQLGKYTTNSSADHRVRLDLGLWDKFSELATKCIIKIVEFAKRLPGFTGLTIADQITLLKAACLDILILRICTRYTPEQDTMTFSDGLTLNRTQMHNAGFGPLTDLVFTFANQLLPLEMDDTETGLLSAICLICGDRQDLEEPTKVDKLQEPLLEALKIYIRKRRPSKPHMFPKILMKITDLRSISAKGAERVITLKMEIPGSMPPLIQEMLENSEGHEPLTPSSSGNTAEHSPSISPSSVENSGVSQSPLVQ

[8] = biological target: T2, RARγ; conditions: taken from Alam et al (9); cited from earlier work
[9] = biological target: T3, RXRα; conditions: taken from Alam et al (9); cited from earlier work
[10] = system: JMML cells; test: inhibition of JMML spontaneous CFU-GM colony formation; conditions: Homo sapiens
Method: Mononuclear cells were separated by density gradient centrifugation, washed, and frozen in aliquots. […] No growth factors or other exogenous stimuli were added to the cultures. UAB retinoids and retinoic acid isomers were dissolved in either 100% ethanol or DMSO. Appropriate dilutions were made, and controls using the respective ethanol or DMSO concentration were set up in parallel. Varying doses of retinoids were added only once, 24 hours after initiation of the soft agar assays, by pipetting the retinoid solution on top of the soft agar and allowing the solution to enter the agar and interact with the cells by diffusion. The cultures were incubated for 14 days at 37° C. in a humidified atmosphere with 5% CO2.

[11] = system: NB4 cells; test: retinoid induction of differentiation of NB4 cells (NBT); type: cell-based, Human; conditions: for EC50: NB-4, 96 h, read-out: ED50 (nM) NB4
Method: NB4 cells were obtained from Dr. Waxman after he received them from Dr. M. Lanotte. […] The cell were grown at 37° C. in a humidified atmosphere of 5% CO2 in air. Cell density was estimated on an electronic particle counter (Coulter electronic, Hialeah, Fla.) and cell viability with trypan bleu dye exclusion.
as §3, §4

[12] = system: mouse skin papilloma; conditions: 45.9 nmol dose; ref (8); cited from earlier work
[13] = system: juvenile myelomonocytic leukemia (JMML); conditions: children with JMML; cited from earlier work
[14] = system: RARs; test: binding to RARs (subtypes stated together in text)
Method: (§5) For active retinoids, IC50 values were determined by titration with varying concentrations of UAB retinoids.

[15] = system: mouse skin papilloma; test: mouse skin antipapilloma assay; conditions: 45.9 nmol dose
Method: The mouse skin antipapilloma assay measured the ED50 values for retinoid tumor inhibition on the dorsal skin of mice. The inhibition of mouse skin papilloma by retinoids was performed according to a modification of the procedure developed by Verma and Boutwell (14) as reported previously by Muccio et al. (8).
The UAB30 retinoids were evaluated next for their activity in preventing the chemical induction of papillomas on mouse skin (14).

[16] = biological target: T1, RARα; test: nuclear receptor radiolabeled competition binding, RARα
Method: as §5

[17] = biological target: T5, RARβ; test: nuclear receptor radiolabeled competition binding, RARβ
Method: as §5

[18] = biological target: T2, RARγ; test: nuclear receptor radiolabeled competition binding, RARγ
Method: as §5

[19] = biological target: T5, RARβ; test: RARβ-mediated transcriptional activation in CV-1 cells; type: cell-based
Method: as §1, §2

[20] = read-out: normalized percent inhibition of CFU-GM colony growth, patient J84 (%)
[21] = read-out: normalized percent inhibition of CFU-GM colony growth, patient J83 (%), 10^-6 M
[22] = read-out: normalized percent inhibition of CFU-GM colony growth, patient J83 (%), 10^-7 M
[23] = read-out: normalized percent inhibition of CFU-GM colony growth, patient J84 (%), 10^-6 M
[24] = read-out: normalized percent inhibition of CFU-GM colony growth, patient J83 (%)

Structure (SMILES): CCC1=C(C(C)C)/C(=C/C(C)=C/C=C/C(C)=C\C(=O)O)CCC1 [(13Z)-UAB8]
- EC50 [1]: 0.051 µM
- EC50 [2]: 42 nM
- EC50 [3]: > 2 µM
- EC50 [4]: 0.45 µM
- EC50 [5]: > 10000 nM
- IC50 [6]: 900 nM
- IC50 [7]: 371 nM
- IC50 [8]: 708 nM
- IC50 [9]: > 1000 nM
- inhibition at 1 µM ([10]; read-out: normalized percent inhibition of CFU-GM colony growth, patient J43 (%)): 80%
- inhibition at 0.01 µM [10, 20]: 0%
- inhibition at 0.1 µM [10, 20]: 18%

Structure (SMILES): CC1=C(/C=C/C(C)=C\C=C\C(C)=C\C(=O)O)C(C)(C)CCC1 [(9Z)-RA, 9-cis-retinoic acid, reference compound]
- NB4 cell differentiation ([11]; retinoid alone): comparable to that of ATRA
- prevention of papilloma (tumor) formation [12]: 95%
- inhibition at 0.1 µM ([10]; read-out: normalized percent inhibition of CFU-GM colony growth, patient J43 (%), 10^-7 M): 98%
- inhibition at 1 µM [10, 21]: 82%
- inhibition at 0.1 µM [10, 22]: 72%
- inhibition at 1 µM [10, 23]: 95%

Structure (SMILES): CC1=C(/C=C/C(C)=C/C=C/C(C)=C\C(=O)O)C(C)(C)CCC1 [(13Z)-RA, reference compound]
- share of children in whom excessive myeloproliferation is controlled [13]: up to 50%
- inhibition at 1 µM ([10]; read-out: normalized percent inhibition of CFU-GM colony growth, patient J43 (%), 10^-6 M): 109%
- inhibition at 1 µM [10, 21]: 94%
- inhibition at 0.1 µM [10, 22]: 86%
- inhibition at 1 µM [10, 23]: 87%

Structure (SMILES): CCC1=C(C(C)C)/C(=C/C(C)=C\C=C\C(C)=C/C(=O)O)CCC1 [(9Z, 13Z)-UAB8]
- EC50 [5]: > 10000 nM
- EC50 ([11]; Homo sapiens, 4-day induction of differentiation): > 10000 nM

Structure (SMILES): CC(=C/C(=O)O)/C=C/C=C(C)/C=C1\CCCc2ccccc21 [(13Z)-UAB30, (2E,4E,6E,8E)-8-(3',4'-Dihydro-1'(2'H)-naphthalen-1'-ylidene)3,7-dimethyl-2,4,6-octatrienoic acid]
- binding to the RAR subtypes [14]: ineffective binder
- EC50 [5]: > 10000 nM
- EC50 ([11]; Homo sapiens): > 10000 nM
- inhibition at 0.1 µM [10, 24]: 82%
- inhibition at 1 µM [10, 24]: 88%
- inhibition at 0.01 µM [10, 20]: 25%
- inhibition at 0.1 µM [10, 20]: 72%
- inhibition at 1 µM [10, 20]: 80%

Structure (SMILES): CC(=C\C=C\C(C)=C\C(=O)O)/C=C1\CCCc2ccccc21 [(all-E)-UAB30, (2E,4E,6E,8E)-8-(3',4'-Dihydro-1'(2'H)-naphthalen-1'-ylidene)3,7-dimethyl-2,4,6-octatrienoic acid]
- EC50 [5]: > 10000 nM
- EC50 ([11]; Homo sapiens): > 10000 nM
- dose up to which not active in NB4 cell differentiation ([11]; retinoid alone, 3 days): > 40 mM
- NB4 cell differentiation ([11]; retinoid alone, listed as all-trans-UAB30): inactive in NB4 cell differentiation; also recorded: not induce differentiation of NB4 cells
- prevention of papilloma (tumor) formation [15]: 59%
- inhibition at 0.1 µM [10, 24]: 68%
- inhibition at 1 µM [10, 24]: 72%
- inhibition at 0.01 µM [10, 20]: 28%
- inhibition at 0.1 µM [10, 20]: 48%
- inhibition at 1 µM [10, 20]: 57%

Structure (SMILES): CCC1=C(C(C)C)/C(=C/C(C)=C\C=C\C(C)=C\C(=O)O)CCC1 [(9Z)-UAB8]
- IC50 [16]: > 1000 nM
- IC50 [17]: > 1000 nM
- IC50 [18]: > 1000 nM
- EC50 [1]: > 1 µM
- EC50 [19]: > 2000 nM
- EC50 [2]: 190 nM
- EC50 [4]: > 2 µM
- EC30 ([11]; Homo sapiens, NB-4, 72 h, retinoid alone, 3 days, read-out: ED30 NB4 cell differentiation): > 3000 µM
- prevention of papilloma (tumor) formation [15]: 54%
